Assay results taken from ChEMBL document CHEMBL1140205, “Discovery and development of fatty acid amide hydrolase (FAAH) inhibitors” (J Med Chem, 2008).

Columns and labels:
[1] = molecular target: T1, Fatty-acid amide hydrolase 1 (Rattus norvegicus, UniProt P97612)
T1 sequence (P97612 whole entry): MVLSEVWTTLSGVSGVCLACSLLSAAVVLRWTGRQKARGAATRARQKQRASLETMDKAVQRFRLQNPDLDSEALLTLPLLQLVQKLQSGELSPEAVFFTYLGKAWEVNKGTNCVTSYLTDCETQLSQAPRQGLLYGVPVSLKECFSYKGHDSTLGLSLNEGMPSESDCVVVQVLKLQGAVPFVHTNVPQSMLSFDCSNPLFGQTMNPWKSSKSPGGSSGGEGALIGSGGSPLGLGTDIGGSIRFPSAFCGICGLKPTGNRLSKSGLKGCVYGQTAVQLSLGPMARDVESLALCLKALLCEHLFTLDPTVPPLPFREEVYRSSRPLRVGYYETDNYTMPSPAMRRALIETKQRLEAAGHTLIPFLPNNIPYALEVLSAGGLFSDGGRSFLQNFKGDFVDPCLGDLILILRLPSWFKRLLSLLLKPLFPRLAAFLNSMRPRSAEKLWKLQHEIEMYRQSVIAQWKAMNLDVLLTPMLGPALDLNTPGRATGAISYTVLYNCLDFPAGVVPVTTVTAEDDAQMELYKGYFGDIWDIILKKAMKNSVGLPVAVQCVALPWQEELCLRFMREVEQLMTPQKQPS

[2] = organism: Rattus norvegicus; experiment: Ex vivo inhibition of FAAH activity in rat brain after 16 hrs; format: functional
[3] = substrate: CCCCCCCC/C=C\CCCCCCCC(N)=O; experiment: Activity of FAAH

For `O=C1O/C(=C/Br)CCC1c1cccc2ccccc12` (stereo not drawn) [BROMOENOL LACTONE], the IC50 [1] was 800 nM.

In the case of `NC(=O)c1cccc(-c2cccc(OC(=O)NC3CCCCC3)c2)c1` [URB-597], the “inhibition (INH)” value [2] is reported as 90%.

B1: Fatty-acid amide hydrolase 1 (Homo sapiens), O00519 (protein)
chain: MVQYELWAALPGASGVALACCFVAAAVALRWSGRRTARGAVVRARQRQRAGLENMDRAAQRFRLQNPDLDSEALLALPLPQLVQKLHSRELAPEAVLFTYVGKAWEVNKGTNCVTSYLADCETQLSQAPRQGLLYGVPVSLKECFTYKGQDSTLGLSLNEGVPAECDSVVVHVLKLQGAVPFVHTNVPQSMFSYDCSNPLFGQTVNPWKSSKSPGGSSGGEGALIGSGGSPLGLGTDIGGSIRFPSSFCGICGLKPTGNRLSKSGLKGCVYGQEAVRLSVGPMARDVESLALCLRALLCEDMFRLDPTVPPLPFREEVYTSSQPLRVGYYETDNYTMPSPAMRRAVLETKQSLEAAGHTLVPFLPSNIPHALETLSTGGLFSDGGHTFLQNFKGDFVDPCLGDLVSILKLPQWLKGLLAFLVKPLLPRLSAFLSNMKSRSAGKLWELQHEIEVYRKTVIAQWRALDLDVVLTPMLAPALDLNAPGRATGAVSYTMLYNCLDFPAGVVPVTTVTAEDEAQMEHYRGYFGDIWDKMLQKGMKKSVGLPVAVQCVALPWQEELCLRFMREVERLMTPEKQSS
With B1 the Km [3] was 5 µM.
